Reference: patent publication US20040034023A1, “Use of polycyclic aromatic compounds for making medicines capable of inhibiting telomerase” (priority 2000, published 2004)
Where “and” joins values, the source holds several entries; their conditions need not be identical. Identical values can stand only once.

Columns and labels:
[1] = test system: human telomerase; experiment: Telomerase inhibition, TRAP test with HL60 cell extract; type: biochemical; conditions: for IC50: TRAP test, HL60 cell lysate as source of telomerase; for in vitro inhibition of the telomerase (FIG. 3A, gel of elongation products): tested at 0.1, 1 and 10 μM
[2] = test system: triplex; conditions: 15 μM colorant; cited from earlier work
[3] = test system: human HeLa tumoral line; experiment: Antiproliferative effect / cytotoxicity on HeLa cells (Cell Titer 96 Aqueous One Solution); type: cell-based
Experimental: Cells of cancer lines are incubated for 3 days in the presence of different concentrations of compound 1.
These cells are cultured in a MEM (Life Technologies) medium containing 10% of decomplemented foetal calf serum, glutamine, nonessential amino acids (1%) and antibiotics (penicillin and streptomycin). The ligand is diluted in the culture medium after adhesion of the cells on 96-well plates (2500 cells per well). The number of cells is estimated by the “Cell Titer 96 Aqueous One Solution Cell Proliferation Assay” kit from Promega. Each measurement was carried out in quadruplicate. The cells are left in the presence of the compound for 1 to 4 days, then counted.

[4] = test system: G-quadruplex (fluo-GGGTTAGGGTTAGGGTTAGGG-tamra oligonucleotide, SEQ ID No. 1); experiment: G-quadruplex stabilization, Tm in fluorescence (FRET method); type: binding; conditions: 1 μM colorant; 0.1 M LiCl 10 mM cacodylate buffer pH 7.6; 0.2 μM oligonucleotide
Experimental: All the experiments were carried out in a 10 mM sodium cacodylate buffer of pH 7.6 containing 0.1 M of lithium chloride (or sodium chloride). The absence of fluorescent contamination in the buffer was verified beforehand. The fluorescent oligonucleotide is added at the final concentration of 0.2 μM.
The identification of G-quartets ligands was carried out by fluorescence according to the FRET (Fluorescence Resonance Energy Transfer) method which corresponds to a dipole-dipole resonance interaction between two molecules close to each other, one of which, the donor, transfers its excitation energy to the other molecule, or acceptor. The formation of an intramolecular G-quartet structure must bring the 2 chromophores close enough to be able to observe a transfer of energy.
All the fluorescence measurements were carried out on a Spex Fluorolog DM1B apparatus, using an excitation line width of 1.8 nm and an emission line width of 4.5 nm. The specimens are placed in a micro quartz dish measuring 0.2×1 cm. The temperature of the specimen is controlled by an external water bath. The single oligonucleotide was analysed at 20, 30, 40, 50, 60, 70 and 80° C. The emission spectra are recorded using an excitation wavelength of 470 nm. The excitation spectra are recorded using either 515 nm, or 588 nm as emission wavelength. The spectra are adjusted to take account of the response of the instrument by reference curves. A substantial extinction (80-90%) of the fluorescence of the fluorescein at ambient temperature is observed, in keeping with an intramolecular folding of the oligonucleotide at 20° C. in the form of a G-quadruplex, which induces a juxtaposition of its 5′ and 3′ ends, respectively bound to the fluorescein and to the tetramethylrhodamine (tamra in short). This juxtaposition involves a phenomenon already described, extinction of fluorescence of the donor by FRET, and a sensitized emission of the acceptor.
A stock solution of oligonucleotide at the strand concentration of 0.2 μM in a 0.1 M LiCl 10 mM cacodylate buffer of pH 7.6 is prepared beforehand, heated briefly to 90° C. and cooled slowly to 20° C., then distributed by aliquots of 600 μl in the fluorescence dishes. 3 μl of water (for the control) or 3 μl of the product to be tested (stock at 200 μM, final concentration 1 μm) are then added and mixed. The specimens are then left to incubate for at least 1 hour at 20° C. before each measurement.
Each experiment allows only a single specimen to be measured. This is firstly incubated at an initial temperature of 20° C., raised to 80° C. in 40 minutes, left for 5 minutes at 80° C., then cooled to 20° C. in 62 minutes. During this time, the fluorescence is measured simultaneously at two emission wavelengths (515 nm and 588 nm) using 470 nm as excitation wavelength. A measurement is carried out every 30 seconds. The temperature of the water bath is recorded in parallel, and the fluorescence profile as a function of the temperature is reconstituted from these values. The fluorescence profiles are then standardized between 20° C. and 80° C., and the temperature for which the emission intensity at 515 nm is the average of those and high and low temperature is called Tm. In these conditions, the Tm of the reference specimen without addition of product is 44° C. in a lithium chloride buffer. This temperature is increased to more than 55° C. in the sodium chloride buffer. The addition of a compound stabilizing the G-quadruplex induces an increase in the Tm. This increase is considered significant if it is greater than 3° C.
In the tests for which the results are reported below, two oligonucleotides were used of sequences SEQ ID No. 1 and SEQ ID No. 2, replaced at the 5′ end by a fluorescein (fluo in short) group and at 3′ end by a tamra group, conforming to the following sequences: […]

Molecule	IC50 [1]	Δ Tm triplex [2] [°C]	Δ Tm G4(FRET) [4]	further results
CCCNCc1ccc2nc3ccc4cc5cc(CNCCC)ccc5nc4c3cc2c1 [Compound 1]	0.3 µM	20		in vitro inhibition of the telomerase (FIG. 3A, gel of elongation products) [1]: disappearance of the bands with less mobility; IC50 ([3]; HeLa cells in the presence of compound for 24 hours): 0.5 µM; mortality ([3]; HeLa cells incubated for 96 hours, 0.5 micromolars): 100%; mortality rate ([3]; HeLa cells, concentrations of 5 micromolars or more): 100%
CCCNCc1cc2nc3ccccc3cc2c2cc3ccccc3nc12 [Compound 2]	1.4 µM and 1.45 µM	37	+5.5 °C	in vitro inhibition of the telomerase (FIG. 3A, gel of elongation products) [1]: inhibits the telomerase
CN(C)CCCNCc1cc2nc3ccccc3cc2c2cc3ccccc3nc12 [Compound 3]	0.75 µM	44		
CCCNCc1ccc2nc3ccc4nc5ccc(CNCCC)cc5cc4c3cc2c1 [Compound 4]	1 µM	18		
CCCNCc1ccc2nc3c(ccc4cc5cc(CNCCC)ccc5nc43)cc2c1 [Compound 5]	0.5 µM	7	+12.5 °C	
CN(C)CCCNCc1ccc2nc3c(ccc4cc5cc(CNCCCN(C)C)ccc5nc43)cc2c1 [Compound 6]	0.9 µM	16		
c1ccc2nc3cc(CNCCN4CCCCC4)c4nc5ccccc5cc4c3cc2c1 [Compound 7]	2 µM		+2.5 °C	
c1cn(CCCNCc2ccc3nc4ccc5cc6cc(CNCCCn7ccnc7)ccc6nc5c4cc3c2)cn1 [Compound 8]	0.46 µM		+15 °C	
c1nc(CCNCc2ccc3nc4ccc5cc6cc(CNCCc7c[nH]cn7)ccc6nc5c4cc3c2)c[nH]1 [Compound 9]	0.95 µM		+10.5 °C	
c1ccc2c(CCNCc3ccc4nc5ccc6cc7cc(CNCCc8c[nH]c9ccccc89)ccc7nc6c5cc4c3)c[nH]c2c1 [Compound 10]			+8.4 °C	
NCCCCNCc1ccc2nc3ccc4cc5cc(CNCCCCN)ccc5nc4c3cc2c1 [Compound 11]	0.13 µM		+18 °C	
c1cc2nc3ccc4cc5cc(CNCCCN6CCOCC6)ccc5nc4c3cc2cc1CNCCCN1CCOCC1 [Compound 12]	0.48 µM		+7 °C	
CN(C)CCCNCc1ccc2nc3ccc4cc5cc(CNCCCN(C)C)ccc5nc4c3cc2c1 [Compound 13]	0.028 µM		+19.7 °C	
tetra [N-methyl pyridyl]porphyrin [reference compound]			approximately 4 °C	
